The structures appear in SMILES notation.

What all share (type): in vivo
The test system of one experiment is Lolium perenne. Description: greenhouse post-emergence trial, percent damage vs untreated control 21 days after treatment. The settings on record: LOLPE; for fenoxaprop alone (% control): Example 13; for mecoprop alone (% control): Example 7; for MCPA alone (% control): Example 4. The protocol: (§1) The trials are carried out under greenhouse conditions in pre- and post-emergence applications. The plant seeds are sown in pots containing a loamy sand soil (0.5 l). The herbicides are applied as single treatments, or in a combination comprising a compound of formula I and compound selected from group (2) as defined above, before or after emergence of weeds and crop. The herbicidal performance is assessed as percent damage in comparison to the untreated control plants. The assessment is done 21 days after the treatment. Wheat and barley are treated at the 3-4 leaf stage, the broad-leaf weeds at the 2-4 leaf stage and annual grasses at the 2-3 leaf stage.

The next experiment concerns Lamium purpureum. Described as above. The conditions noted are these: LAMPU; for ioxynil alone (% control): Example 8; for clodinafop alone (% control): Example 12; for mecoprop alone (% control): Example 7; for MCPA alone (% control): Example 4. As to the method: as §1
The subject of a further experiment is Apera spica-venti. Described as above. The settings on record: APESV; for cinidon-ethyl alone (% control): Example 10; for pendimethalin alone (% control): Example 14; for clodinafop alone (% control): Example 12; for mecoprop alone (% control): Example 7. As to the method:
as §1

The test system of experiment [1] is Alopecurus myosuroides. The description is as above. The settings on record: ALOMY; for fenoxaprop alone (% control): Example 13; for flupyrsulfuron alone (% control): Example 5; for pendimethalin alone (% control): Example 14; for MCPA alone (% control): Example 4. As to the method:
as §1

Another experiment has as its system Stellaria media. Described as above. The settings on record: STEME; for fenoxaprop alone (% control): Example 13. The protocol:
as §1

The next experiment relates to Matricaria inodora. The description is as above. The conditions noted are these: MATIN; for cinidon-ethyl alone (% control): Example 10; for carfentrazone alone (% control): Example 9. As to the method: as §1
A further experiment has as its system Setaria viridis. Described as above. The conditions noted are these: SETVI; for cinidon-ethyl alone (% control): Example 10; for flupyrsulfuron alone (% control): Example 5; for carfentrazone alone (% control): Example 9; for MCPA alone (% control): Example 4. As to the method:
as §1

Experiment [2] has as its system Galium aparine. The experiment is described as above. The settings on record: GALAP; for flupyrsulfuron alone (% control): Example 5; for clodinafop alone (% control): Example 12. As to the method:
as §1

The test system of experiment [3] is Alopecurus myosuroides. In words: greenhouse pre-emergence trial, percent damage vs untreated control 21 days after treatment. The conditions noted are these: ALOMY, Example 3.
In experiment [4] the test system is Galium aparine. The experiment is described as above. The conditions noted are these: GALAP, Example 3.

For the molecule `N#Cc1cc(I)c(O)c(I)c1` [ioxynil], the “ioxynil alone (% control)” value in the experiment with Lolium perenne (240 g/ha, Example 8) is recorded as 0%; in the experiment on Lamium purpureum (60 g/ha), 0%; in the experiment on Lamium purpureum (120 g/ha) it was 15%; with Lamium purpureum (240 g/ha), 28%; with Apera spica-venti (120 g/ha, Example 8), 0%.
As for `CCS(=O)(=O)c1nc2ccccn2c1S(=O)(=O)NC(=O)Nc1nc(OC)cc(OC)n1` [sulfosulfuron, reference compound], in the experiment with Lolium perenne (3.75 g/ha, Example 6), the “sulfosulfuron alone (% control)” value is reported as 18%.
As for `CC(Oc1ccc(Oc2nc3ccc(Cl)cc3o2)cc1)C(=O)O` (stereo not shown) [fenoxaprop, reference compound], the “fenoxaprop alone (% control)” value is 0% with Alopecurus myosuroides [1] (15 g/ha); 0% in the experiment with Alopecurus myosuroides [1] (30 g/ha); 0% in the experiment on Stellaria media (30 g/ha); 0% in the experiment with Stellaria media (60 g/ha); 0% in the experiment with Matricaria inodora (30 g/ha, Example 13); 3% in the experiment with Lolium perenne (15 g/ha). The “fenoxaprop alone (% control)” value in the experiment on Lolium perenne (60 g/ha) turned out to be 43%; with Apera spica-venti (30 g/ha, Example 13) it was 58%.
As to `CCOC(=O)C(Cl)=Cc1cc(N2C(=O)C3=C(CCCC3)C2=O)ccc1Cl` [cinidon-ethyl, reference compound], the “cinidon-ethyl alone (% control)” value with Setaria viridis (25 g/ha) is 0%; with Setaria viridis (50 g/ha) it was 0%; with Matricaria inodora (12.5 g/ha) it was 53%; with Matricaria inodora (25 g/ha), 68%; in the experiment with Galium aparine [2] (25 g/ha, Example 10), 20%; in the experiment with Apera spica-venti (25 g/ha) it was 0%. Also, the “cinidon-ethyl alone (% control)” value in the experiment on Apera spica-venti (50 g/ha) is listed as 0%.
As to `COc1cc(OC)nc(NC(=O)NS(=O)(=O)c2nc(C(F)(F)F)ccc2C(=O)O)n1` [flupyrsulfuron, reference compound], the “flupyrsulfuron alone (% control)” value in the experiment on Alopecurus myosuroides [1] (2.5 g/ha) was 35%; with Alopecurus myosuroides [1] (5 g/ha), 53%; with Alopecurus myosuroides [1] (10 g/ha), 73%; in the experiment on Setaria viridis (2.5 g/ha) it was 0%; in the experiment on Setaria viridis (5 g/ha) it was 10%; in the experiment on Setaria viridis (10 g/ha) it was 10%. For the same molecule, the “flupyrsulfuron alone (% control)” value in the experiment with Lolium perenne (10 g/ha, Example 5) came out at 10%; in the experiment with Galium aparine [2] (5 g/ha), 0%; in the experiment on Galium aparine [2] (10 g/ha), 0%; with Apera spica-venti (2.5 g/ha, Example 5) it was 0%.
Take `CCC(CC)Nc1c([N+](=O)[O-])cc(C)c(C)c1[N+](=O)[O-]` [pendimethalin, reference compound]: the “pendimethalin alone (% control)” value in the experiment on Alopecurus myosuroides [1] (120 g/ha) was 0%; with Alopecurus myosuroides [1] (240 g/ha) it was 15%; in the experiment with Setaria viridis (480 g/ha, Example 14), 40%; with Galium aparine [2] (120 g/ha, Example 14) it was 23%; in the experiment on Apera spica-venti (120 g/ha), 5%; in the experiment on Apera spica-venti (240 g/ha) it was 40%.
As for `Cc1nn(-c2cc(CC(Cl)C(=O)O)c(Cl)cc2F)c(=O)n1C(F)F` (stereo not shown) [carfentrazone, reference compound], the “carfentrazone alone (% control)” value in the experiment on Stellaria media (1.88 g/ha, Example 9) is listed as 0%; with Setaria viridis (1.88 g/ha) it was 0%; in the experiment on Setaria viridis (15 g/ha), 0%; in the experiment on Matricaria inodora (1.88 g/ha) it was 0%; in the experiment with Matricaria inodora (15 g/ha) it was 48%.
Turning to `C[C@@H](Oc1ccc(Oc2ncc(Cl)cc2F)cc1)C(=O)O` [clodinafop, reference compound], the “clodinafop alone (% control)” value in the experiment on Alopecurus myosuroides [1] (7.5 g/ha, Example 12) was determined as 10%; with Lolium perenne (15 g/ha, Example 12), 65%; in the experiment with Lamium purpureum (7.5 g/ha) it was 0%; with Lamium purpureum (15 g/ha), 0%; with Galium aparine [2] (7.5 g/ha) it was 0%; with Galium aparine [2] (15 g/ha), 0%. Besides, the results for the “clodinafop alone (% control)” value in the experiment with Galium aparine [2] (30 g/ha), in the experiment on Apera spica-venti (15 g/ha) and with Apera spica-venti (30 g/ha) were 0%, 0% and 15%, respectively.
`CC(C)OC(=O)c1cc(-c2nn(C)c(C(F)(F)F)c2Br)c(F)cc1Cl` [JV 485, isopropyl 2-chloro-4-fluoro-5-(4-bromo-1-methyl-6-trifluoromethyl-pyrazol-3-yl)-benzoate, reference compound]: the “JV 485 alone (% control)” value with Alopecurus myosuroides [3] (30 g/ha) is 10%; with Alopecurus myosuroides [3] (60 g/ha), 25%; with Alopecurus myosuroides [3] (120 g/ha), 65%; in the experiment with Galium aparine [4] (60 g/ha), 0%; in the experiment on Galium aparine [4] (120 g/ha), 63%.
Regarding `Cc1cc(Cl)ccc1OC(C)C(=O)O` (stereo not shown) [mecoprop, reference compound], the “mecoprop alone (% control)” value stood at 0% in the experiment on Lolium perenne (240 g/ha); 0% in the experiment with Lolium perenne (480 g/ha); 0% with Lolium perenne (960 g/ha); 10% in the experiment on Lamium purpureum (240 g/ha); 48% with Lamium purpureum (480 g/ha); 0% with Apera spica-venti (240 g/ha). Besides, the “mecoprop alone (% control)” value in the experiment with Apera spica-venti (480 g/ha) and in the experiment on Apera spica-venti (960 g/ha) was 0% each time.
With `Cc1cc(Cl)ccc1OCC(=O)O` [MCPA, reference compound], the “MCPA alone (% control)” value is listed as 0% with Alopecurus myosuroides [1] (120 g/ha); 0% with Alopecurus myosuroides [1] (240 g/ha); 0% with Alopecurus myosuroides [1] (480 g/ha); 65% in the experiment with Stellaria media (480 g/ha, Example 4); 25% in the experiment with Setaria viridis (120 g/ha); 43% with Setaria viridis (240 g/ha). The “MCPA alone (% control)” value worked out at 0% in the experiment with Lolium perenne (120 g/ha); 10% with Lolium perenne (240 g/ha); 0% in the experiment on Lamium purpureum (120 g/ha); 0% with Lamium purpureum (240 g/ha); 13% with Lamium purpureum (480 g/ha); 0% in the experiment on Apera spica-venti (240 g/ha, Example 4).

The values above are taken from patent US6683027B2, “Herbicidal mixtures” (BASF Aktienegesellschaft, priority 2000, dated 2004).
